Assay results from patent publication US5059615A, “Antimycotically active cyclopropyl-substituted azolylmethylcarbinols” (Bayer Aktiengesellschaft, priority 1988, dated 1991).
Converted amounts (≈) assume the structure as drawn.

What was measured:
[1] = system: Torulopsis glabrata; assay: Antimycotic in vitro activity, serial dilution test (MIC); format: cell-based; settings: Nakaseomyces glabratus, meat extract-dextrose broth, 28-37° C., 24 to 96 hours, read-out: MIC values in μg/ml of nutrient medium
Description: (§1) The in vitro tests were carried out in a serial dilution test using inocula of microorganisms of on average 5×10^4 to 10^5 microorganisms/ml of substrate. The nutrient medium used was b) for yeasts meat extract-dextrose broth. The incubation temperature was 28° C. to 37° C., and the incubation time was 24 to 96 hours with yeasts and 96 hours with dermatophytes and Hyphomycetes.

[2] = system: Candida albicans; assay: as above; format: cell-based; settings: for MIC: Candida albicans, meat extract-dextrose broth, 28-37° C., 24 to 96 hours, read-out: MIC values in μg/ml of nutrient medium; for activity compared with the known compounds (A) and (B): serial dilution test, in particular against Candida albicans
Description: as §1

[3] = system: Candida cells; assay: Antimycotic in vivo activity (oral) in mouse candidosis; set-up: species or system Mice of the SPF-CF type; settings: for Action / surviving on the 6th day p.i.: 10-100 mg/kg one hour before and seven hours after infection; for Action: survival on the 6th day p.i.; for surviving on the 6th day p.i.: untreated about 5%; for action (in words) / action compared with the known compounds (C) and (D): mouse candidosis
Description: Mice of the SPF-CF type were infected intravenously with 1-2×10^6exponentially growing Candida cells which were suspended in physiological saline solution. One hour before and seven hours after the infection, the animals were treated orally in each case with 10-100 mg/kg of body weight of the preparation. Untreated animals died 3 to 6 days post infection. The survival rate on the 6th day post infection in untreated control animals was about 5%.

[4] = system: Aspergillus fumigatus; assay: Antimycotic in vitro activity, serial dilution test (MIC); format: cell-based; settings: Sabouraud's test medium, 28-37° C., 96 hours, read-out: MIC values in μg/ml of nutrient medium
Description: as §1, with “a)” for “b)”, “dermatophytes and Hyphomycetes Sabouraud's test medium” for “yeasts meat extract-dextrose broth.”

[5] = system: Microsporum canis; assay: as above; format: cell-based; settings: Sabouraud's test medium, 28-37° C., 96 hours, read-out: MIC values in μg/ml of nutrient medium
Description: as §1, with “a)” for “b)”, “dermatophytes and Hyphomycetes Sabouraud's test medium” for “yeasts meat extract-dextrose broth.”

[6] = system: Trichophyton mentagrophytes; assay: as above; format: cell-based; settings: Trichophyton mentagr., Sabouraud's test medium, 28-37° C., 96 hours, read-out: MIC values in μg/ml of nutrient medium
Description: as §1, with “a)” for “b)”, “dermatophytes and Hyphomycetes Sabouraud's test medium” for “yeasts meat extract-dextrose broth.”

[7] = system: Trichophyton mentagrophytes; assay: Antimycotic in vivo activity (local) in the experimental guinea-pig trichophytosis model; set-up: species or system guinea-pigs of the Pirbright white strain; settings: 2.5% strength solution
Description: White guinea-pigs of the Pirbright white strain were infected on the shaven, non-scarified back using a microconidia and macroconidia suspension of Trichophyton mentagrophytes. The infected animals were treated locally from. The 3rd day 1x daily p.i. using a 2.5% strength solution of the preparation according to the invention (in dimethyl sulphoxide:glycerol=1:4). In untreated animals, the typical picture of dermatophytosis with reddening, scaling and hair loss up to total integumental defect of the infection site developed in the course of 12 days p.i.

Row | SMILES | MIC [1] | MIC [2] | activity compared with the known compounds (A) and (B) [2] | Action [3] | surviving on the 6th day p.i. [3] | action (in words) [3] | action compared with the known compounds (C) and (D) [3] | MIC [4] | MIC [5] | MIC [6] | action (in words) [7]
1 | N#CC1(C(O)(Cn2cncn2)c2ccc(Cl)cc2Cl)CC1 (centres unmarked) [I-16] | 32 µg/mL (≈ 99 µM) | 16 µg/mL (≈ 49.5 µM) | better activity | +++++ (very good action = 90% surviving on the 6th day p.i.) | > 80% | good to very good action | better than the compounds (C) and (D) | 2 µg/mL (≈ 6.19 µM) | < 1 µg/mL | < 1 µg/mL | –
2 | N#CC1(C(O)(Cn2cncn2)c2ccc(C(F)(F)F)cc2Cl)CC1 (centres unmarked) [I-11] | – | – | – | +++++ (very good action = 90% surviving on the 6th day p.i.) | > 80% | good to very good action | better than the compounds (C) and (D) | – | – | – | –
3 | N#CC1(C(O)(Cn2cncn2)c2ccccc2Cl)CC1 (centres unmarked) [I-13] | – | – | – | ++++ (good action = 80% surviving on the 6th day p.i.) | > 80% | good to very good action | better than the compounds (C) and (D) | – | – | – | –
4 | OC(Cn1cncn1)(Cn1cncn1)c1cccc(Cl)c1 [A, reference compound] | > 64 µg/mL | > 64 µg/mL | – | – | – | – | – | > 64 µg/mL | – | 32 µg/mL (≈ 105 µM) | –
5 | N#CC1(C(O)(Cn2cncn2)c2c(F)cccc2F)CC1 (centres unmarked) [I-15] | – | – | – | +++++ (very good action = 90% surviving on the 6th day p.i.) | > 80% | good to very good action | better than the compounds (C) and (D) | – | – | – | –
6 | N#CC1(C(O)(Cn2cncn2)c2ccc(Cl)cc2F)CC1 (centres unmarked) [I-14] | 16 µg/mL (≈ 52.2 µM) | 2 µg/mL (≈ 6.52 µM) | better activity | +++++ (very good action = 90% surviving on the 6th day p.i.) | > 80% | good to very good action | better than the compounds (C) and (D) | 4 µg/mL (≈ 13 µM) | 4 µg/mL (≈ 13 µM) | < 1 µg/mL | –
7 | N#CC1(C(O)(Cn2cncn2)c2ccc(OC(F)(F)F)cc2)CC1 (centres unmarked) [I-9] | – | – | – | +++++ (very good action = 90% surviving on the 6th day p.i.) | > 80% | good to very good action | better than the compounds (C) and (D) | – | – | – | –
8 | N#CC1(C(O)(Cn2cncn2)c2ccc(F)cc2F)CC1 (centres unmarked) [I-4, 1-(1-Cyanocyclopropyl)-1-(2,4-difluorophenyl)-2-(1,2,4-triazol-1-yl)ethanol] | – | – | – | +++++ (very good action = 90% surviving on the 6th day p.i.) | > 80% | good to very good action | better than the compounds (C) and (D) | – | – | – | –
9 | N#CC1(C(O)(Cn2cncn2)c2ccc(Cl)cc2)CC1 (centres unmarked) [I-3, 1-(1-Cyanocyclopropyl)-1-(4-chlorophenyl)-2-(1,2,4-triazol-1-yl)ethanol] | 8 µg/mL (≈ 27.7 µM) | 2 µg/mL (≈ 6.93 µM) | better activity | +++++ (very good action = 90% surviving on the 6th day p.i.) | > 80% | good to very good action | better than the compounds (C) and (D) | 4 µg/mL (≈ 13.9 µM) | 4 µg/mL (≈ 13.9 µM) | 2 µg/mL (≈ 6.93 µM) | good action
10 | NC(=O)C1(C(O)(Cn2cncn2)c2ccc(F)cc2)CC1 (centres unmarked) [I-7, 1-(1-Carboxamidocyclopropyl)-1-(4-fluorophenyl)-2-(1,2,4-triazol-1-yl)ethanol] | – | – | – | +++++ (very good action = 90% surviving on the 6th day p.i.) | > 80% | good to very good action | better than the compounds (C) and (D) | – | – | – | –
11 | N#CC1(C(O)(Cn2ccnc2)c2ccc(F)cc2)CC1 (centres unmarked) [I-5, 1-(1-cyanocyclopropyl)-1-(4-fluorophenyl)-2-(imidazol-1-yl)ethanol] | 8 µg/mL (≈ 29.5 µM) | 8 µg/mL (≈ 29.5 µM) | better activity | – | – | – | – | 4 µg/mL (≈ 14.7 µM) | 4 µg/mL (≈ 14.7 µM) | < 1 µg/mL | –
12 | N#CC1(C(O)(Cn2cncn2)c2ccc(F)cc2)CC1 (centres unmarked) [I-2, 1-(1-Cyanocyclopropyl)-1-(4-fluorophenyl)-2-(1,2,4-triazol-1-yl)ethanol] | – | – | – | +++++ (very good action = 90% surviving on the 6th day p.i.) | > 80% | good to very good action | better than the compounds (C) and (D) | – | – | – | good action
13 | OC(Cn1cncn1)(Cn1cncn1)c1ccccc1 [B, reference compound] | > 64 µg/mL | 64 µg/mL (≈ 237 µM) | – | – | – | – | – | > 64 µg/mL | – | 64 µg/mL (≈ 237 µM) | –
